Results as given in patent US12419875B2, “Use of Axitinib and analogs thereof in preparing blood-brain barrier permeability regulator” (ZHEJIANG UNIVERSITY, priority 2018, dated 2025).

Experiments:
[1] = test system: Claudin-5; assay: Pathological blood-brain barrier Transwell model (bEnd.3 co-incubated with U87 MG), Claudin-5 immunofluorescence; type: cell-based; details: bEnd.3/U87 MG co-incubation, 24 hours; FIG. 8
Protocol: A transwell model of co-incubation of brain microvascular endothelial cells bEnd.3 and glioma cells U87 MG simulates a pathological blood-brain barrier. Axitinib was allowed to act on the Transwell chamber. After 24 hours, immunofluorescent staining was performed on bEnd.3 cells on the Transwell chamber membrane. A physiological blood-brain barrier simulated by a Transwell model of brain microvascular endothelial cell bEnd.3 was used as a positive control group. […] Panel B is the result of fluorescence semi-quantitative analysis of Claudin-5 expression by Image J (n=3).
Axitinib was added to the Transwell chamber. After the drug was allowed to act for 24 hours, the Transwell cell with bEnd.3 cells grown was transferred to another 12-well plate, washed with PBS for three times, fixed with 4% formaldehyde, and blocked with 10% bovine serum albumin for 30 minutes. Thereafter, Claudin-5 primary antibody was added and incubated at 4° C. overnight, and finally was incubated with fluorescently-labeled secondary antibody for 1 hour. The nucleus was counterstained with DAPI.

[2] = test system: Claudin-5/Occludin; assay: Pathological blood-brain barrier Transwell model, Claudin-5/Occludin immunofluorescence; type: cell-based; details: 10 μM, 24 hours; FIG. 12
Protocol: A Transwell model of co-incubation of brain microvascular endothelial cells bEnd.3 and glioma cells U87 MG simulates a pathological blood-brain barrier. Axitinib (10 μM), an Axitinib analog of phosphatidylinositol kinase (PI3K) inhibitor LY294002 (10 μM), protein kinase B (AKT) agonist SC79 (10 μM) were added into the Transwell chamber. After 24 hours, immunofluorescent stain was performed on bEnd.3 cells on the Transwell chamber membrane. A physiological blood-brain barrier simulated by a Transwell model of brain microvascular endothelial cell bEnd.3 was used as a positive control.
U87 MG glioma cells were used as brain tumor model cells. 1.5 mL suspension of well-grown U87 MG cell suspension was inoculated in a 12-well plate at a cell density of 2×10^5/well. Incubation was continued at 37° C. and 5% CO2 until the cells adhere. Then, the physiological blood-brain barrier as constructed by Method 1 in the Example 1, i.e., the Transwell chamber with bEnd.3 cells grown, was transferred to the 12-well plate with U87 MG cells grown. Co-culture was further continued for 24 hours to obtain a cell model of pathological blood-brain barrier.

[3] = test system: bEnd.3 cells; assay: Cell survival rate by tetrazolium blue colorimetry, bEnd.3 cells; type: cell-based; details: 10 μM (therapeutic dose), FIGS. 13 and 14
Protocol: FIG. 13: Evaluation of cell survival rate in a Transwell model. A Transwell model of co-incubation of brain microvascular endothelial cells bEnd.3 and glioma cells U87 MG simulates a pathological blood-brain barrier. Axitinib (10 μM) and an Axitinib analog of phosphatidylinositol kinase (PI3K) inhibitor LY294002 (10 μM) were added into the Transwell chamber. After 24 hours, the survival rate of bEnd.3 cells in the Transwell chamber (Panel A) and U87 MG cells in the Transwell outer chamber (Panel B) were detected by tetrazolium blue colorimetry (n=3).
FIG. 14: Evaluation of Cytotoxicity for Axitinib and an analog thereof. […] Cell survival rate was detected by tetrazolium blue colorimetry. […]
The physiological blood-brain barrier and the pathological blood-brain barrier as constructed in Method 1 and Method 2 in the Example 1 were used as models, respectively. […] Absorbance at 570 nm was measured with a microplate reader. The survival rate of cells was calculated according to the following formula: Survival rate of cells (%)=(absorbance value of a test group/absorbance value of a control group)×100%
In addition, bEnd.3 cells and U87 MG glioma cells were used as model cells to evaluate the cytotoxicity of Axitinib and an Axitinib analog of phosphatidylinositol kinase (PI3K) inhibitor LY294002 with the tetrazolium blue colorimetric method. […] Absorbance at 570 nm was measured with a microplate reader.

[4] = test system: pathological blood-brain barrier (bEnd.3 cells with tumor cell culture); assay: Tumor cell culture co-incubated with bEnd.3 cells (U87MG removed), FITC-dextran transmembrane transport; type: cell-based; details: tumor cell culture kept, 10 μM, 24 hours, FIG. 16
Protocol: FIG. 16: Co-incubation of a tumor cell culture and bEnd.3 cells in vitro, and FITC-dextran transmembrane transport efficiency. A Transwell model of co-incubation of brain microvascular endothelial cells bEnd.3 and glioma cells U87 MG simulates a pathological blood-brain barrier. Once a pathological blood-brain barrier model was formed, U87MG glioma cells in the outer chamber of Transwell were removed, while the tumor cell cultures were remained. Axitinib (10 μM) and an Axitinib analog of phosphatidylinositol kinase (PI3K) inhibitor LY294002 (10 μM) were added to the Transwell chamber. After 24 hours, the Transwell chamber and the outer chamber were cleaned with PBS, and a FITC-dextran solution in HBSS was added to the Transwell chamber, and was allowed to act for 4 hours. The result as shown in the figure was the FITC-dextran concentration of the Transwell outer chamber as detected by a fluorescence spectrophotometer. […]
The physiological blood-brain barrier and the pathological blood-brain barrier as constructed in Method 1 and Method 2 in the Example 1 were used as models, respectively. […] After the cells were incubated at 37° C. in the dark for 4 hours, concentration of FITC-dextran transferred to the outer chamber via the Transwell chamber was detected with a fluorescence spectrophotometer.

[5] = test system: tyrosine hydroxylase; assay: Striatum tyrosine hydroxylase immunohistochemistry, model of Parkinson's disease; details: FIG. 29

How did the “Expression of tight junction protein Claudin-5” value [1] turn out when `CNC(=O)c1ccccc1Sc1ccc2c(/C=C/c3ccccn3)n[nH]c2c1` [Axitinib, N-methyl-2-((3-((1E)-2-(pyridine-2-yl)ethenyl)-1H-indazol-6-yl)sulfanyl)benzamide] was run?
The value was “reduce down-regulation of expression of the blood-brain barrier tight junction protein of Claudin-5”.

What about the “Expression of tight junction protein Claudin-5/Occludin” value [2] of the same molecule?
Its value is “reduce the degree to which pathological blood-brain barrier tight junction protein of Claudin-5/Occludin is down-regulated”.

What about the Cytotoxicity [3] of the same molecule?
The Cytotoxicity was “do not produce significant cytotoxicity”.

And the “FITC-dextran transmembrane transport (blood-brain barrier permeability)” value [4]?
The value was “blood-brain barrier permeability is reduced”.

And the “Expression of striatum tyrosine hydroxylase, compared with the levodopa treatment group” value ([5]; Axitinib 10 mg/kg 7 days vs levodopa 20 mg/kg 10 days)?
Its value is “superior to that in the levodopa treatment group”.

And the “Expression of striatum tyrosine hydroxylase” value ([5]; Axitinib 10 mg/kg 7 days, levodopa 20 mg/kg 10 days)?
Its value is “significantly up-regulated”.
